Results on 19 molecules are retold here after paper PMC6331850, “Evaluation of the Cytotoxicity of Structurally Correlated p-Menthane Derivatives” (Molecules, 2015).

The test system of series [1] is OVCAR-8 (ovarian adenocarcinoma). Nature of the series: MTT cytotoxicity assay, OVCAR-8. Type of series: cell-based. The settings on record: Homo sapiens, 25 μg/mL, 72 h incubation, mean of three independent experiments, read-out: Cell growth inhibition percentage, OVCAR-8 IG%. How it is done:
(§1) The cytotoxicity of the 18 compounds was tested against OVCAR-8 (ovarian adenocarcinoma), HCT-116 (colon carcinoma), SF-295 (glioblastoma), and HL-60 (leukemia) human cancer cell lines, all obtained from the National Cancer Institute, Bethesda, MD, USA. Cells were grown in RPMI-1640 medium supplemented with 10% fetal bovine serum, 2 mM glutamine, 100 µg/mL streptomycin, and 100 U/mL penicillin, and incubated at 37 °C in a 5% CO2 atmosphere.
(§2) Tumor cell growth was determined by the ability of living cells to reduce the yellow dye 3-(4,5-dimethyl-2-thiazolyl)-2,5-diphenyl-2H-tetrazolium bromide (MTT; Sigma Chemical Co., St. Louis, MO, USA) to a purple formazan product, as described by Mossman. For all experiments, cells were seeded in 96-well plates (0.1 × 10^6 cells/mL in 100 μL medium). After 24 h, the 18 compounds (25 μg/mL), were dissolved in 0.7% dimethyl sulfoxide (DMSO), and were added to each well (three independent experiments, performed in triplicate). Then, the cells were incubated for 72 h at 37 °C in a 5% CO2 atmosphere. The experiment was performed as three independent experiments, using DMSO at 1%, and doxorubicin at […] as negative and positive controls, respectively. Doxorubicin, purity >98%; Sigma Chemical Co.).
(§3) At the end of incubation, the plates were centrifuged, and the medium was replaced by fresh medium (150 μL) containing 0.5 mg/mL MTT. Three hours later, the formazan product was dissolved in 150 μL DMSO, and absorbance was measured using a multiplate reader (DTX 880 Multimode Detector, Beckman Coulter Inc., Packard, ON, Canada). The treatment effects were expressed as the percentage of control absorbance of reduced dye at 595 nm. All absorbance values were converted into a cell growth inhibition percentage (GI%) by the following formula: [GI% = 100 − [(T/C) × 100%] (1) where C is the absorbance for the negative control, and T is the absorbance in the presence of the tested compound. […]
Background: Formazan colour is commonly taken as a measure of viable cells.

In another series the test system is SF-295 (glioblastoma). Nature of the series: MTT cytotoxicity assay, SF-295. It is filed as cell-based. The settings on record: Homo sapiens, 25 μg/mL, 72 h incubation, mean of three independent experiments, read-out: Cell growth inhibition percentage, SF-295 IG%. The protocol:
as §1, §2, §3

Series [2] has as its system HCT-116 (colon carcinoma). The series is described as follows: MTT cytotoxicity assay, HCT-116. As to conditions: Homo sapiens, 25 μg/mL, 72 h incubation, mean of three independent experiments, read-out: Cell growth inhibition percentage, HCT-116 IG%. It is filed as cell-based. How it is done: as §1, §2, §3
Series [3] relates to OVCAR-8, HCT-116, and SF-295 human tumor cell lines. Nature of the series: MTT cytotoxicity assay, range over the three tumor cell lines. Type of series: cell-based. The settings on record: for inhibition at 25 µg/mL: read-out: GI, range over the three cell lines. The protocol:
as §1, §2
At the end of incubation, the plates were centrifuged, and the medium was replaced by fresh medium (150 μL) containing 0.5 mg/mL MTT. Three hours later, the formazan product was dissolved in 150 μL DMSO, and absorbance was measured using a multiplate reader (DTX 880 Multimode Detector, Beckman Coulter Inc., Packard, ON, Canada). The treatment effects were expressed as the percentage of control absorbance of reduced dye at 595 nm. All absorbance values were converted into a cell growth inhibition percentage (GI%) by the following formula: [GI% = 100 − [(T/C) × 100%] (1) where C is the absorbance for the negative control, and T is the absorbance in the presence of the tested compound.
The compounds that caused greater degree of cell growth inhibition and which have not been described in the literature for cytotoxic activity against tumor cell lines were evaluated for their median inhibitory concentration able to induce 50% of maximal effect (IC50). […] In addition, the IC50 was determined against HL-60 only for the most cytotoxic compound 16.

Series [4] has as its system HL-60 cells. The series is described as follows: Morphological analysis with hematoxylin-eosin staining. Type of series: cell-based, human. As to conditions: 0.32, 0.64, 1.28 µg/mL; 24 h incubation. The protocol:
For morphological cell analysis, we used hematoxylin-eosin and examined using light microscopy. HL-60 cells were seeded (0.3 × 10^6 cells/mL) in the absence or presence of different concentrations of compound 16 (0.32, 0.64 and 1.28 µg/mL). After an incubation period of 24 h, 50 µL of cell suspension were transferred to cytospin slides, fixed with metanol for 60 s, and stained with hematoxylin-eosin [43].

For a further series, the system named is mouse erythrocytes. Nature of the series: Hemolytic assay. It is filed as cell-based. As to conditions: up to highest tested concentration 500 μg/mL; data not shown. How it is done:
The test was performed in 96-well plates using a 2% mouse erythrocyte suspension in 0.85% NaCl containing 10 mm CaCl2, following the method as described by Jimenez and collaborators. Various concentrations of compound 16 (0–500 µg/mL) were added to the suspension of red blood cells obtained from mice according to methodology adapted from Kang and collaborators, Pita and collaborators, and Bezerra and collaborators. The tubes with the compound 16 erythrocyte mixtures were incubated on a mixer for 60 min and then centrifuged at 3000 rpm for 5 min. […] After incubation at room temperature for 30 min and centrifugation, the supernatant was removed and the liberated hemoglobin was measured spectrophotometrically as the absorbance at 540 nm.

The subject of the next series is HL-60 (leukemia). Nature of the series: MTT cytotoxicity assay, HL-60. As to conditions: Homo sapiens, 72 h incubation, read-out: IC50 (95% confidence interval), HL-60. It is filed as cell-based. How it is done: as §1
Tumor cell growth was determined by the ability of living cells to reduce the yellow dye 3-(4,5-dimethyl-2-thiazolyl)-2,5-diphenyl-2H-tetrazolium bromide (MTT; Sigma Chemical Co., St. Louis, MO, USA) to a purple formazan product, as described by Mossman. […]
as §3

Series [5] relates to HL-60 cells. The series is described as follows: Morphological analysis by fluorescence microscopy (acridine orange/ethidium bromide). Type of series: cell-based, human. The settings on record: 24 h. How it is done: HL-60 cells were pelleted and re-suspended in 20 µL of PBS. Then, 1 µL of aqueous acridine orange/ethidium bromide solution (AO/EB, 100 µg/mL) was added, and the cells were observed under a fluorescence microscope. Three hundred cells were counted per sample and classified as viable, apoptotic or necrotic.

For series [6], the system named is HL-60 cells. Nature of the series: Cell viability, trypan blue dye exclusion test. Type of series: cell-based, human. As to conditions: 0.32, 0.64, 1.28 µg/mL; 24 h incubation. How it is done: The cell viability was determined by the trypan blue dye exclusion test. HL-60 cells were seeded (0.3 × 10^6 cells/mL) in absence or presence of different concentrations of compound 16 (0.32, 0.64, and 1.28 µg/mL). After the incubation period of 24 h, 90 µL were removed from the cell suspension and added to 10 µL of trypan blue. Viable and non-viable cells were differentiated and counted in a Neubauer chamber.

[7] abbreviates: Homo sapiens, 72 h, 25 µg/mL, MTT, 72 h, HCT-116, OVCAR-8, SF-295.

In brackets after ≈: the same amount, converted by molar mass. Some results are limits rather than exact numbers.

Consider `C=C(C)[C@@H]1CC(=O)[C@@]2(C)O[C@H]2C1` [Compound 5, (−)-Carvone epoxide], for which the inhibition at 25 µg/mL in series [1] is 8.21%; with SF-295 (glioblastoma), 10.9%; in series [2] it was 29.2%.
In the case of `C=C(C)[C@@H]1CCC2(C)OC2C1` (single isomer, unassigned; (+)) [Compound 12, (+)-Limonene 1,2-epoxide], the inhibition at 25 µg/mL is less than 50% in series [3] (setting [7]), 93.1% in [1], 58.5% in the series with SF-295 (glioblastoma) and 73.1% in series [2]. Further, in [3] (compared with (−)-carvone epoxide (5), 25 µg/mL), the “fold more cytotoxic than 5 (GI ratio)” value is listed as 2.5- to 11 fold.
As for `C[C@@H]1CCC2(OC2(C)C)C(=O)C1` (stereo partly drawn) [Compound 10, (R)-pulegone oxide], the inhibition at 25 µg/mL in series [1] is 17.6%; in the series on SF-295 (glioblastoma), 16%; in [2] it was 43.2%.
On to `C=C(C)[C@@H]1CC=C(CO)CC1` [Compound 14, (S)-(−)-perillyl alcohol], for which the inhibition at 25 µg/mL is 90.9 to 95.8% in series [3] (setting [7]), 91.7% in series [1], 90.9% with SF-295 (glioblastoma) and 95.8% in series [2].
For the molecule `COc1cccc2c1C(=O)c1c(O)c3c(c(O)c1C2=O)C[C@@](O)(C(=O)CO)C[C@@H]3O[C@H]1C[C@H](N)[C@H](O)[C@H](C)O1` [Doxorubicin, reference compound], the values for the inhibition at 25 µg/mL (in series [1]; with SF-295 (glioblastoma); in series [2]) were 100%, 99.6% and 99.2%, respectively.
Regarding `CC1=CC[C@@H](C(C)(C)O)CC1=O` [Compound 3, (−)-8-Hydroxycarvotanacetone], the “GI, range over the three cell lines” value in [3] (25 µg/mL, MTT, 72 h, HCT-116, OVCAR-8, SF-295) was 61.59% to 94.01%. Besides, the inhibition at 25 µg/mL in series [3] (setting [7]) is 61.6 to 94%; in series [1] it was 94%; with SF-295 (glioblastoma) it was 61.6%; in [2], 75.2%.
With `C=C(C)[C@@H]1CC=C(C)[C@H](O)C1` [Compound 7, (−)-cis-carveol], the values for the inhibition at 25 µg/mL (in series [1]; in the series with SF-295 (glioblastoma); in [2]) were 3.61%, 21.2% and 9%, respectively.
For `CC1=CC[C@H](C(C)(C)O)CC1=O` [Compound 4, (+)-8-Hydroxycarvotanacetone], in that order: 3.12%, 16.4% and 4.76%.
For `C=C(C)[C@@H]1CC[C@@H](C)CC1=O` [Compound 11, (−)-trans-isopulegone], in that order: 5.98%, 7.56% and 19%.
For `C=C(C)[C@@H]1CC=C(C)C(=O)C1` [Compound 1, (−)-Carvone], in that order: 2.28%, 12.3% and 11.9%.
Take `C=C(C)[C@@H]1C[C@H](O)[C@]2(C)O[C@@H]2C1` [Compound 6, (+)-Carveol epoxide]: the figures for the inhibition at 25 µg/mL (in series [1]; with SF-295 (glioblastoma); in series [2]) were 4.58%, 35.4% and 12.4%, respectively.
For `CC(C)=C1CC[C@@H](C)CC1=O` [Compound 9, (+)-Pulegone], in that order: 14.4%, 27.4% and 10.2%.
Consider `CC1=CC[C@@H](C(C)(C)O)CC1O` (single isomer, unassigned; (-)) [Compound 13, (−)-Sobrerol], for which the inhibition at 25 µg/mL in series [1] was found to be 41.4%; in the series with SF-295 (glioblastoma), 34.2%; in series [2], 9.78%.
As to `C=C(C)[C@H]1CC=C(C)C(=O)C1` [Compound 2, (+)-Carvone], the inhibition at 25 µg/mL in series [3] (setting [7]) is less than 50%; in series [1] it was 48.1%; with SF-295 (glioblastoma), 34.4%; in [2], 46.1%.
Take `CC(=O)OC(C)(C)[C@@H]1CC=C(C)C(=O)C1` [Compound 8, (−)-8-Acetoxycarvotanacetone]: the results for the inhibition at 25 µg/mL (in series [1]; in the series on SF-295 (glioblastoma); in series [2]) were 1.62%, 30.5% and 10.4%, respectively.
Take `C=C(C)[C@@H]1CC=C(COC(=O)c2ccccc2)CC1` [Compound 18, (S)-perillyl benzoate]: the inhibition at 25 µg/mL was found to be 2.86% in series [1], 4.53% in the series with SF-295 (glioblastoma) and 5.02% in series [2].
As for `CC1([C@@H]2CC=C(C=O)CC2)CO1` (single isomer, unassigned; (-)) [Compound 16, (−)-Perillaldehyde 8,9-epoxide], the inhibition at 25 µg/mL in series [3] (setting [7]) is 96.3 to 99.9%; in series [1], 96.3%; in the series on SF-295 (glioblastoma), 99.9%; in series [2], 98.6%. Further, the IC50 in series [3] (Homo sapiens, MTT, 72 h, HCT-116, OVCAR-8, SF-295) is 1.03 to 1.75 µg/mL (≈ 6.2 to 10.5 µM); in the series on HL-60 (leukemia) it was 0.64 µg/mL (≈ 3.85 µM). Also, the “cell morphology, hematoxylin-eosin” value with HL-60 cells [4] was “morphology consistent with apoptosis”. Besides, the “hemolysis (lysis of mouse erythrocytes)” value in the series with mouse erythrocytes was “not hemolytic”. Further, the “cell death process, three concentrations tested” value in the series with HL-60 cells [5] (0.32, 0.64, 1.28 µg/mL, Figures 3 and 4) was “cell death by apoptosis”. The “cell morphology, acridine orange/ethidium bromide” value in the series with HL-60 cells [5] (0.32, 0.64, 1.28 µg/mL, concentration-dependent, p < 0.05) was “morphology consistent with apoptosis and necrosis”. Further, in the series with HL-60 cells [5] (doses of 0.64 and 1.28), the “cell death process at the higher doses” value is “necrotic cell death”. Besides, the “effect on number of viable / non-viable cells” value in the series on HL-60 cells [6] is recorded as “reduction in the number of viable cells”.
Turning to `C=C(C)[C@@H]1CC=C(C=O)CC1` [Compound 15, (−)-Perillaldehyde], the inhibition at 25 µg/mL in series [3] (setting [7]) is 59.3 to 83%; in [1], 70.2%; in the series with SF-295 (glioblastoma), 59.3%; in series [2], 83%.
Take `C=C(C)[C@@H]1CC=C(COC(C)=O)CC1` [Compound 17, (−)-Perillyl acetate]: the inhibition at 25 µg/mL in [1] turned out to be 3.06%; with SF-295 (glioblastoma), 16.4%; in series [2], 14.2%.

A word on the IC50: it is the concentration at which inhibition is half-maximal.
